Publication PMC11822212, “High-throughput screening identifies Aurora kinase B as a critical therapeutic target for Merkel cell carcinoma” (Nature Communications, 2025)
Counter-ions that a name gives are not always drawn. Like-named read-outs stand apart in the source and are kept apart here.

Tests used:
[1] = test system: VN-MCC cell lines (MCC13, MCC26, UISO); assay: qHTS cell viability, VN-MCC cell lines as a group (mean AUC, VN.MCC.avg); type: cell-based, human
HEK293T cells = assay: qHTS cell viability (CellTiter-Glo, 72 h; primary screen), control cell line; type: cell-based, human
[2] = test system: MCC cell lines (WAGA, MKL-1, MKL-2, MCC13, MCC26, UISO); assay: qHTS cell viability, all six MCC cell lines as a group (mean AUC, MCC.avg); type: cell-based, human
[3] = test system: control cell lines (HACAT, HEK293T, CRL-7250, NIH-3T3); assay: qHTS cell viability, control cell lines as a group (mean AUC, Control.avg); type: cell-based
NIH-3T3 cells = assay: qHTS cell viability (CellTiter-Glo, 72 h; primary screen), control cell line; type: cell-based, mouse
MKL-1 cells (VP-MCC) = assay: qHTS cell viability (CellTiter-Glo, 72 h; primary and follow-up small molecule screen); type: cell-based, human
MCC26 cells (VN-MCC) = assay: as above; type: cell-based, human
UISO cells (VN-MCC) = assay: as above; type: cell-based, human
HACAT cells = assay: qHTS cell viability (CellTiter-Glo, 72 h; primary screen), control cell line; type: cell-based, human
MKL-2 cells (VP-MCC) = assay: qHTS cell viability (CellTiter-Glo, 72 h; primary and follow-up small molecule screen); type: cell-based, human
[4] = test system: six MCC cell lines and four control cell lines; assay: qHTS cell viability, all 10 cell lines screened; type: cell-based
CRL-7250 cells = assay: qHTS cell viability (CellTiter-Glo, 72 h; primary screen), control cell line; type: cell-based
MCC13 cells (VN-MCC) = assay: qHTS cell viability (CellTiter-Glo, 72 h; primary and follow-up small molecule screen); type: cell-based, human
WAGA cells (VP-MCC) = assay: as above; type: cell-based, human
[5] = test system: VP-MCC cell lines (WAGA, MKL-1, MKL-2); assay: qHTS cell viability, VP-MCC cell lines as a group (mean AUC, VP.MCC.avg); type: cell-based, human
[6] = NPC library, mean AUC of VN-MCC cell lines
[7] = NPC library, therapeutic window: Control avg AUC minus VN-MCC avg AUC
[8] = NPC library, qHTS dose-response AUC, HEK293T control
[9] = NPC library, mean AUC of six MCC cell lines
[10] = NPC library, mean AUC of control cell lines
[11] = NPC library, qHTS dose-response AUC, NIH3T3 control
[12] = NPC library, qHTS dose-response AUC, MKL1
[13] = NPC library, qHTS dose-response AUC, MCC26
[14] = NPC library, qHTS dose-response AUC, UISO
[15] = NPC library, qHTS dose-response AUC, HACAT control
[16] = NPC library, qHTS dose-response AUC, MKL2
[17] = NPC library, therapeutic window: Control avg AUC minus MCC avg AUC
[18] = NPC library, qHTS dose-response AUC, CRL7250 control
[19] = NPC library, qHTS dose-response AUC, MCC13
[20] = NPC library, qHTS dose-response AUC, WAGA
[21] = NPC library, mean AUC of VP-MCC cell lines
[22] = NPC library, therapeutic window: Control avg AUC minus VP-MCC avg AUC
[23] = NPC library, 8-point DRC, control cell line
[24] = NPC library, 8-point DRC, area under dose-response curve
[25] = MIPE library, 11-point DRC, control cell line, sheet S2E
[26] = MIPE library, 11-point DRC, sheet S2E

`OCCN1CCN(CCCN2c3ccccc3Sc3ccc(C(F)(F)F)cc32)CC1` [Fluphenazine] was tested, and the VN-MCC_Avg_AUC [1, 6] was 431.018, the Control-VN-MCC [1, 7] was 42.343 and the HEK293T_AUC (HEK293T cells; [8]) was 438.571. For the same compound, the MCC_Avg_AUC [2, 9] was 427.186, the Control_Avg_AUC [3, 10] was 473.361 and the NIH3T3_AUC (NIH-3T3 cells; [11]) was 476.772. The MKL1_AUC (MKL-1 cells (VP-MCC); [12]) was 435.034, the MCC26_AUC (MCC26 cells (VN-MCC); [13]) was 425.402 and the UISO_AUC (UISO cells (VN-MCC); [14]) was 423.342. The HACAT_AUC (HACAT cells; [15]) was 491.426, the MKL2_AUC (MKL-2 cells (VP-MCC); [16]) was 399.652 and the Control-MCC [4, 17] was 46.1748. The CRL7250_AUC (CRL-7250 cells; [18]) was 486.675, the MCC13_AUC (MCC13 cells (VN-MCC); [19]) was 444.309 and the WAGA_AUC (WAGA cells (VP-MCC); [20]) was 435.377. It also gave a VP-MCC_Avg_AUC [5, 21] of 423.354 and a Control-VP-MCC [5, 22] of 50.0066.
With `Cl.Cl.Fc1ccc(C(OCCN2CCN(CCCc3ccccc3)CC2)c2ccc(F)cc2)cc1` [GBR 12909 dihydrochloride] the VN-MCC_Avg_AUC [1, 6] was 408.55, the Control-VN-MCC [1, 7] was 35.8586 and the HEK293T_AUC (HEK293T cells; [8]) was 425.616. For the same compound, the MCC_Avg_AUC [2, 9] was 400.618, the Control_Avg_AUC [3, 10] was 444.409 and the NIH3T3_AUC (NIH-3T3 cells; [11]) was 436.091. For the same compound, the MKL1_AUC (MKL-1 cells (VP-MCC); [12]) was 403.123, the MCC26_AUC (MCC26 cells (VN-MCC); [13]) was 404.643 and the UISO_AUC (UISO cells (VN-MCC); [14]) was 384.769. The HACAT_AUC (HACAT cells; [15]) was 461.158, the MKL2_AUC (MKL-2 cells (VP-MCC); [16]) was 375.344 and the Control-MCC [4, 17] was 43.7909. It also gave a CRL7250_AUC (CRL-7250 cells; [18]) of 454.771, an MCC13_AUC (MCC13 cells (VN-MCC); [19]) of 436.239 and a WAGA_AUC (WAGA cells (VP-MCC); [20]) of 399.59. The VP-MCC_Avg_AUC [5, 21] was 392.686 and the Control-VP-MCC [5, 22] was 51.7231.
With `CNC(=O)[C@H](CC1=CN=C2C=CCC=C12)NC(=O)[C@@H](CC(=O)NO)CC(C)C` [GM-6001] the Control-VN-MCC [1] was -9.139, the VN-MCC_Avg_AUC [1] was 478.29 and the HEK293T_AUC (HEK293T cells) was 473.463. It also gave an MCC_Avg_AUC [2] of 388.271, a Control_Avg_AUC [3] of 469.151 and an NIH3T3_AUC (NIH-3T3 cells) of 471.496. For the same compound, the MKL1_AUC (MKL-1 cells (VP-MCC)) was 284.283, the MCC26_AUC (MCC26 cells (VN-MCC)) was 475.207 and the UISO_AUC (UISO cells (VN-MCC)) was 484.498. For the same compound, the HACAT_AUC (HACAT cells) was 458.777, the MKL2_AUC (MKL-2 cells (VP-MCC)) was 291.464 and the Control-MCC [4] was 80.8804. It also gave a CRL7250_AUC (CRL-7250 cells) of 472.869, an MCC13_AUC (MCC13 cells (VN-MCC)) of 475.165 and a WAGA_AUC (WAGA cells (VP-MCC)) of 319.008. The Control-VP-MCC [5] was 170.899 and the VP-MCC_Avg_AUC [5] was 298.252.
Work on `COc1ccc(CCN(C)CCCC(C#N)(c2cc(OC)c(OC)c(OC)c2)C(C)C)cc1OC` (stereo not shown) [Gallopamil hydrochloride] yielded a Control-VN-MCC ([1]; NPC library, Control AUC minus VN-MCC AUC (therapeutic window)) of 54.804, a VN-MCC_Avg_AUC [1, 6] of 424.406 and an HEK293T_AUC (HEK293T cells; [23]) of 464.897. For the same compound, the MCC_Avg_AUC [2, 9] was 434.143, the Control_Avg_AUC [3, 10] was 479.21 and the NIH3T3_AUC (NIH-3T3 cells; [23]) was 476.798. For the same compound, the MKL1_AUC (MKL-1 cells (VP-MCC); [24]) was 429.324, the MCC26_AUC (MCC26 cells (VN-MCC); [24]) was 402.644 and the UISO_AUC (UISO cells (VN-MCC); [24]) was 431.729. The HACAT_AUC (HACAT cells; [23]) was 488.048, the MKL2_AUC (MKL-2 cells (VP-MCC); [24]) was 457.405 and the Control-MCC ([4]; NPC library, Control AUC minus MCC AUC (therapeutic window)) was 45.0671. It also gave a CRL7250_AUC (CRL-7250 cells; [23]) of 487.096, an MCC13_AUC (MCC13 cells (VN-MCC); [24]) of 438.844 and a WAGA_AUC (WAGA cells (VP-MCC); [24]) of 444.909. The Control-VP-MCC ([5]; NPC library, Control AUC minus VP-MCC AUC (therapeutic window)) was 35.3303 and the VP-MCC_Avg_AUC [5, 21] was 443.879.
`C=CC(=O)Nc1cccc(Nc2nc(NC3CCC(N(C)C)CC3)nc3c2ncn3C(C)C)c1` (stereo not shown) [HMSL10084] gave a Control-VN-MCC ([1]; MIPE library, Control AUC minus VN-MCC AUC (therapeutic window), sheet S2E) of -8.265, a VN-MCC_Avg_AUC ([1]; MIPE library, mean AUC of VN-MCC cell lines, sheet S2E) of 360.951 and an HEK293T_AUC (HEK293T cells; [25]) of 317.706. For the same compound, the MCC_Avg_AUC ([2]; MIPE library, mean AUC of six MCC cell lines, sheet S2E) was 269.649, the Control_Avg_AUC ([3]; MIPE library, mean AUC of control cell lines, sheet S2E) was 352.686 and the NIH3T3_AUC (NIH-3T3 cells; [25]) was 437.409. The MKL1_AUC (MKL-1 cells (VP-MCC); [26]) was 144.905, the MCC26_AUC (MCC26 cells (VN-MCC); [26]) was 381.337 and the UISO_AUC (UISO cells (VN-MCC); [26]) was 276.887. It also gave an HACAT_AUC (HACAT cells; [25]) of 381.06, an MKL2_AUC (MKL-2 cells (VP-MCC); [26]) of 208.594 and a Control-MCC ([4]; MIPE library, Control AUC minus MCC AUC (therapeutic window), sheet S2E) of 83.0363. For the same compound, the CRL7250_AUC (CRL-7250 cells; [25]) was 274.567, the MCC13_AUC (MCC13 cells (VN-MCC); [26]) was 424.628 and the WAGA_AUC (WAGA cells (VP-MCC); [26]) was 181.546. The Control-VP-MCC ([5]; MIPE library, Control AUC minus VP-MCC AUC (therapeutic window), sheet S2E) was 174.338 and the VP-MCC_Avg_AUC ([5]; MIPE library, mean AUC of VP-MCC cell lines, sheet S2E) was 178.348.
